For test [1], the target named is CB2 receptor (Homo sapiens, UniProt P34972). Put plainly: CB2 binding assay (displacement of radiolabeled agonist).
In test [2] the test system is conscious rats with partial urethral obstruction. The experiment in a line: Cystometry in conscious rats with partial urethral obstruction (PUO). It is filed as in vivo, rat. The settings on record: 3 mg/kg IP daily for 2 weeks. The source says: The effect of chronic treatment with the compound of Formula I on bladder function was studied by cystometry in conscious rats with partial urethral obstruction (“PUO”) after 2 weeks of treatment with the compound of Formula I. Protocols for animals and bladder catheter implantation were as in Example 4 above.
The bladder and urethra was exposed via a mid-line incision of the lower abdom. A 19 gauge needle (0.9 mm OD) was placed on the surface of the urethra, and a 3-0 black mono nylon suture was firmly tied over the urethra and the ligation was left in place for the duration of the study. The needle was then removed and the diameter and position of the ligature was then inspected to ensure that a partial urethral obstruction was obtained. The abdominal cavity was then closed in layers with single cross-sutures (5-0 black polyfilament nylon suture). Animals were then housed in individual cages for two weeks before cystometry were performed.
The appropriate solution of the compound of Formula I was prepared on the day of the experiment using PBS as the vehicle. A stock solution of 10 mg/ml in PBS was used and the animals were administered daily, weight-controlled doses of 3 mg/kg compound of Formula I or vehicle by intraperitoneal (“IP”) injection over the 2 week treatment period, starting on the day of PUO surgery.
Cystometry was performed without anesthesia three days after the implantation of bladder catheters in rats with PUO, and after two weeks of daily treatment with the compound of Formula I. The conscious rats were placed in metabolic cages without restraint and the bladder catheters were connected via a T-tube to a pressure transducer (P23 DC; Statham Instruments Inc., Oxnard, Calif.) and a microinjection pump (CMA 100; Carnegie Medicine AB, Solna, Sweden). Micturition volumes were recorded with a fluid collector connected to a force displacement transducer (FT 03 D, Grass Instrument Co., Quincy, Mass.). Room-temperature saline was infused into the bladder continuously at a rate of 10 ml/h. Bladder size increases several-fold in rats subjected to PUO. Therefore, an infusion rate of 20 ml/h was used during cystometry in these animals. Pressures and micturition volumes were recorded continuously with Acq Knowledge 3.8.1 software and a MP100 data acquisition system (Biopac Syst. Inc. Santa Barbara, Calif.) connected to a Grass polygraph (Model 7E, Grass Instrument Co). At the beginning of cystometry, the bladder was emptied via the bladder catheter.
The following urodynamic parameters were investigated: micturition pressure (“MP;” maximum bladder pressure during micturition), threshold pressure (“ThP”; bladder pressure at start of detrusor contraction), flow pressure (“FP”; bladder pressure when urethra opens), MI (time between two micturitions), micturition volume (“MV”; volume of the expelled urine), and RV (volume left in bladder after a micturition). At least a 30-minute period with stable and reproducible micturitions was recorded before drug administration and used as baseline value, to be compared with a corresponding stable 30-minute period after drug administration. For multiple comparisons, a one-way analysis of variance for repeated measures (Holm-Sidak) was used. Pairwise and non-pairwise comparisons were made by Student's t-test. All statistical calculations are based on the number of individual animals, and significant differences are accepted when p<0.05.
As used herein, the term “chronic” means that the animals were dosed once/day for 14 days, prior to taking the cystometry measurements. For specific investigation and analysis of NVCs, the PUO should beneficially be removed approximately 2-3 days prior to the urodynamic investigation. […]

Chain of CB2 receptor (P34972 whole entry): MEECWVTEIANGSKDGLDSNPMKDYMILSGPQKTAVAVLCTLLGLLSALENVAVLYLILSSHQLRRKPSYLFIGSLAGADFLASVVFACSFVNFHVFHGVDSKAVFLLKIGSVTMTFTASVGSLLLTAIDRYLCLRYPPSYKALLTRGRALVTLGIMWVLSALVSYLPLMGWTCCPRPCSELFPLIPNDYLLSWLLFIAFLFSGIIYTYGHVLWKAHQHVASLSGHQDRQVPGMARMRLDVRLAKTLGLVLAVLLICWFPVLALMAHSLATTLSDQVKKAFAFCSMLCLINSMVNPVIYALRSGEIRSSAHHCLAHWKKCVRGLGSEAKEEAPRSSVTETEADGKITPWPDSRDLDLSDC

As to `CCCCCCC(C)(C)c1cc(O)c([C@H]2CC(=O)[C@H]3C[C@@H]2C3(C)C)c(OC(=O)/C=C/C(=O)O)c1` [Formula I], in test [1], the CB2/CB1 affinity ratio came out at 34. Besides, the IC50 in test [1] (displaces 50% of a radiolabeled agonist) came to 19.4 nM. The “Incidence of NVC” value in test [2] (PUO rats) was determined as 20%. The compound also came in with a Mean bladder weight in test [2] (PUO rats, n=10, not significant) of 0.88 ± 0.13 g. In addition, the “Micturition pressure (MP)” value in test [2] (PUO rats, ns) is reported as 116.0±17.4 cmH2O. In test [2] (PUO rats, p<0.002), the “Mean flow pressure (FP)” value is recorded as 87.4±8.7 cmH2O and the “Mean threshold pressure (ThP)” value was determined as 39.4±4.9 cmH2O. In addition, the “Micturition interval (MI)” value in test [2] (PUO rats, p<0.01) is 84 ± 10 s. Moreover, in test [2] (PUO rats, p<0.02), the “Micturition volume (MV)” value is 0.43 ± 0.07 mL and the “Residual volume (RV)” value came out at 0.09 ± 0.05 mL. Also, the Micturition frequency in test [2] (PUO rats, p<0.03) is 53±11 micturitions per hour. In addition, the “PUO rats exhibiting non-voiding contractions (NVCs)” value in test [2] (p<0.04) is on record as 2 out of 10.

Broadly, the IC50 is the concentration that inhibits the measured activity by half. Lower therefore signals higher potency.

The values above are taken from patent US20090312414A1, “Treatment Of Lower Urinary Tract Dysfunction With CB2-Receptor-Selective Agonists” (priority 2008, published 2009).
